Here are results for 17 compounds from ChEMBL document CHEMBL3045296, “Synthesis of aryloxyalkylamines as h5-HT1B agonists with potential analgesic activity” (Med Chem Res, 2009).

Molecules are shown by their SMILES.

Series [1] has as its system Mus musculus. Description: Analgesic activity in Mus musculus (mouse) assessed as writhing response at 75 mg/kg, ip relative to control. The format is functional. The settings on record: route intraperitoneal. A general note: An intraperitoneal irritant provokes the stretching counted in writhing tests.
Series [2] relates to Mus musculus. Description: Toxicity in Mus musculus (mouse) assessed as skeletal muscle incoordination at 50 mg/kg, ip. The settings on record: in vivo. The format is organism-based, Muscle tissue. More on the design: dose 50 mg/kg, route intraperitoneal.
The subject of series [3] is Mus musculus. Description: Toxicity in Mus musculus (mouse) assessed as muscle twitching at 50 mg/kg, ip. The format is organism-based, Muscle tissue. Details: dose 50 mg/kg, route intraperitoneal. The settings on record: in vivo.
Series [4] has as its system Mus musculus. Nature of the series: Toxicity in Mus musculus (mouse) assessed as epilepsy at 50 mg/kg, ip. The format is organism-based. Details: dose 50 mg/kg, route intraperitoneal. The settings on record: in vivo.
For series [5], the system named is Mus musculus. Nature of the series: Toxicity in Mus musculus (mouse) assessed as tremors at 50 mg/kg, ip. The class given is organism-based. Details: dose 50 mg/kg, route intraperitoneal. The settings on record: in vivo.
Series [6] concerns Mus musculus. Nature of the series: Toxicity in Mus musculus (mouse) assessed as protrusion of eyes at 50 mg/kg, ip. More on the design: dose 50 mg/kg, route intraperitoneal. The settings on record: in vivo. The class given is organism-based.
The test system of series [7] is Mus musculus. Nature of the series: Toxicity in Mus musculus (mouse) assessed as tail and hair erection at 50 mg/kg, ip. The settings on record: in vivo. Details: dose 50 mg/kg, route intraperitoneal. The format is organism-based.
Series [8] relates to Mus musculus. Nature of the series: Analgesic activity in Mus musculus (mouse) assessed as writhing response at 25 mg/kg, ip relative to control. The format is functional. The settings on record: route intraperitoneal.
Series [9] concerns Mus musculus. Nature of the series: Toxicity in Mus musculus (mouse) assessed as irritability at 50 mg/kg, ip. The settings on record: in vivo. The format is organism-based. More on the design: dose 50 mg/kg, route intraperitoneal.
Series [10] relates to Mus musculus. Description: Toxicity in Mus musculus (mouse) assessed as excitation at 50 mg/kg, ip. The class given is organism-based. Details: dose 50 mg/kg, route intraperitoneal. The settings on record: in vivo.
Series [11] concerns Mus musculus. Description: Toxicity in Mus musculus (mouse) assessed as difficulties in respiration at 50 mg/kg, ip. The class given is organism-based. Details: dose 50 mg/kg, route intraperitoneal. The settings on record: in vivo.
Series [12] deals with Mus musculus. Nature of the series: Analgesic activity in Mus musculus (mouse) assessed as writhing response at 50 mg/kg, ip relative to control. The settings on record: route intraperitoneal. The format is functional.
Series [13] deals with 5-hydroxytryptamine receptor 1B (Homo sapiens, UniProt P28222). Nature of the series: Binding affinity to Homo sapiens (human) 5HT1B receptor by radioligand binding assay.
5-hydroxytryptamine receptor 1B, sequence (P28222 whole entry): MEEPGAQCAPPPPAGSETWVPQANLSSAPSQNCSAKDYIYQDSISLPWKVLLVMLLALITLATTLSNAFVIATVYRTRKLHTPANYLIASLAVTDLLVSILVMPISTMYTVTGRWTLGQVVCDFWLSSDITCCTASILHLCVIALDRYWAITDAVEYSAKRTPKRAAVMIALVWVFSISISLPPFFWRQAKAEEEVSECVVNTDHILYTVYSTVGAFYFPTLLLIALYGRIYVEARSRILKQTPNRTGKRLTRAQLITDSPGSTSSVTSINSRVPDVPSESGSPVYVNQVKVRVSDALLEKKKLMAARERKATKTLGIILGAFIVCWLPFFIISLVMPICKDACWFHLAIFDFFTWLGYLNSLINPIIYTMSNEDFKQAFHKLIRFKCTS
Series [14] concerns the target 5-hydroxytryptamine receptor 1D (Homo sapiens, UniProt P28221). Description: Binding affinity to Homo sapiens (human) 5HT1D receptor by radioligand binding assay.
Series [15] has as its system Mus musculus. Nature of the series: Analgesic activity in Mus musculus (mouse) assessed as writhing response at 20 mg/kg, ip relative to control. The class given is functional. The settings on record: route intraperitoneal.
The subject of series [16] is Mus musculus. Nature of the series: Toxicity in Mus musculus (mouse) assessed as excitation at 20 mg/kg, ip. The class given is organism-based. Details: dose 20 mg/kg, route intraperitoneal. The settings on record: in vivo.
Series [17] concerns Mus musculus. Nature of the series: Toxicity in Mus musculus (mouse) assessed as irritability at 20 mg/kg, ip. More on the design: dose 20 mg/kg, route intraperitoneal. The settings on record: in vivo. The format is organism-based.
Series [18] has as its system Mus musculus. Nature of the series: Toxicity in Mus musculus (mouse) assessed as muscle twitching at 20 mg/kg, ip. The class given is organism-based, Muscle tissue. More on the design: dose 20 mg/kg, route intraperitoneal. The settings on record: in vivo.
Series [19] concerns Mus musculus. Description: Toxicity in Mus musculus (mouse) assessed as protrusion of eyes at 20 mg/kg, ip. The format is organism-based. Details: dose 20 mg/kg, route intraperitoneal. The settings on record: in vivo.
Series [20] has as its system Mus musculus. Description: Toxicity in Mus musculus (mouse) assessed as difficulties in respiration at 20 mg/kg, ip. The class given is organism-based. More on the design: dose 20 mg/kg, route intraperitoneal. The settings on record: in vivo.
Series [21] relates to Mus musculus. Description: Toxicity in Mus musculus (mouse) assessed as epilepsy at 20 mg/kg, ip. The format is organism-based. The settings on record: in vivo. Details: dose 20 mg/kg, route intraperitoneal.
For series [22], the system named is Mus musculus. Nature of the series: Toxicity in Mus musculus (mouse) assessed as tremors at 20 mg/kg, ip. The class given is organism-based. Details: dose 20 mg/kg, route intraperitoneal. The settings on record: in vivo.
For series [23], the system named is Mus musculus. Nature of the series: Toxicity in Mus musculus (mouse) assessed as skeletal muscle incoordination at 20 mg/kg, ip. The class given is organism-based, Muscle tissue. Details: dose 20 mg/kg, route intraperitoneal. The settings on record: in vivo.
The test system of series [24] is Mus musculus. Nature of the series: Toxicity in Mus musculus (mouse) assessed as tail and hair erection at 20 mg/kg, ip. The class given is organism-based. Details: dose 20 mg/kg, route intraperitoneal. The settings on record: in vivo.
The test system of series [25] is Mus musculus. Description: Analgesic activity in Mus musculus (mouse) assessed as writhing response at 100 mg/kg, ip relative to control. The settings on record: route intraperitoneal. The class given is functional.

5-hydroxytryptamine receptor 1D, sequence (P28221 whole entry): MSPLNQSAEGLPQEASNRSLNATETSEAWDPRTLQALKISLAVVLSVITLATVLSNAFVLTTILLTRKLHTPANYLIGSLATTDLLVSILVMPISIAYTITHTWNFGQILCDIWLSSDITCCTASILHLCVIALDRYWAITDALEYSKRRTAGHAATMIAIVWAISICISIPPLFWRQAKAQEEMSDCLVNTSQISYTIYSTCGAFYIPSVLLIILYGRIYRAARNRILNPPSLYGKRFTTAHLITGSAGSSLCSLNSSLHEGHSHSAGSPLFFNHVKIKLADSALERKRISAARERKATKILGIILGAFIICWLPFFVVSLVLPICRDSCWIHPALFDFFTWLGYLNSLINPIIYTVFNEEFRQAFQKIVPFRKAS

For `CNCCOc1c(Br)cccc1Br.O=C(O)C(=O)O`, the Activity in [1] is listed as 100%; in [2] it was “Toxic”; in series [3], “Toxic”; in series [4], “Toxic”; in series [5], “Toxic”; in [6], “Toxic”. Also, the Activity entry in series [7] is “Toxic”; in series [8], 25%; in [9] it was “Toxic”; in [10], “Toxic”; in series [11] it was “Toxic”; in series [12] it was 62.5%.
Turning to `CNCCOc1cccc(Cl)c1Cl`, the Ki in series [13] amounted to 36.4 nM; in [14], 2030 nM.
For `CNCCOc1ccc(Cl)cc1Cl` the same measures were 2750 nM and 975 nM.
For `CNCCOc1cc(Cl)ccc1Cl` the same measures were 3640 nM and 3820 nM.
On to `CNCCOc1ccc(Br)cc1Br`, for which the inhibition constant Ki is 1250 nM in [13] and 1240 nM in [14].
Regarding `CN1CCN(CCOc2ccc(Br)cc2Br)CC1`, the Ki in series [13] was 1460 nM; in series [14] it was above 10000 nM.
As for `CN[C@@H](COc1cccc(Cl)c1Cl)c1ccccc1`, the Ki in [13] was above 10000 nM; in series [14], 6290 nM.
As for `CN[C@H](COc1cccc(Cl)c1Cl)c1ccccc1`, affinity in [14] was put at a Ki of 7790 nM.
For the compound `CN1CCN([C@@H](COc2cccc(Cl)c2Cl)c2ccccc2)CC1`, the figures for the Ki in [13] and in series [14] were 833 nM and 1490 nM, respectively.
Consider `CN1CCN([C@H](COc2cccc(Cl)c2Cl)c2ccccc2)CC1`, for which the inhibition constant Ki turned out to be 912 nM in series [13] and 5460 nM in [14].
Taken in the same sequence, the figures for `CNC(C)COc1cccc(Cl)c1Cl` (racemic) were 2480 nM and 599 nM.
Regarding `CNC(C)COc1ccc(Cl)cc1Cl` (racemic), the inhibition constant (Ki) in [13] came out at 4200 nM; in series [14] it was 2870 nM.
Regarding `CNC(C)COc1cc(Cl)ccc1Cl.O=C(O)C(=O)O` (racemic), the Activity in series [15] is listed as 66%; in series [16], “Toxic”; in series [17] it was “Toxic”; in series [18], “Toxic”; in series [19], “Toxic”; in [20], “Toxic”. Also, the Activity entry in series [21], in series [22], in [23] and in series [24] was “Toxic” each time. Further, the results for the Ki in series [13] and in series [14] were 6690 nM and 5400 nM, respectively.
Take `CNC(C)COc1ccc(Br)cc1Br` (racemic): the inhibitory constant (Ki) in [13] amounted to 2320 nM; in series [14], 1120 nM.
On to `CNC(C)COc1c(Br)cccc1Br.O=C(O)C(=O)O` (racemic), for which the Activity in series [1] is recorded as 100%; in [2] it was “Toxic”; in [3], “Toxic”; in [4], “Toxic”; in [5], “Toxic”; in series [6], “Toxic”. Further, the Activity entry was “Toxic” in series [7]; 0% in [8]; “Toxic” in [9]; “Toxic” in [10]; “Toxic” in [11]; 75% in series [12]. The inhibition constant Ki is 71.5 nM in series [13] and 225 nM in series [14].
Regarding `CNC(C)COc1cccc(Oc2ccccc2)c1` (racemic), the inhibition constant (Ki) in [13] was determined as 752 nM; in [14] it was 393 nM.
Turning to `CC(=O)Oc1ccccc1C(=O)O` [ASPIRIN], the Activity in [25] worked out at 100%.

Usually Ki stands for the dissociation constant of the complex between target and ligand, obtained from inhibition or displacement. Low readings indicate tighter binding, high ones weaker binding.
